# Laboratory results: patent US20240409585A1, “MACROCYCLIC IMMUNOMODULATORS” (priority 2021, published 2024)
# Like-named read-outs stand apart in the source and are kept apart here. Numbered stars: 1 amine (or outer) side, 2 acyl side, 3 side chain; on linkers, the order of the positions; unused ones are H or OH. Bridge positions count the residues as written; N and C are the ends. Square brackets hold non-standard residues; d marks the D form. Peptide text beside a SMILES is read from it. * marks the point of attachment. Bip(4'-COOH) = N[C@@H](Cc1ccc(-c2ccc(C(=O)O)cc2)cc1)C(=O)O; Phe(3-CF3) = N[C@@H](Cc1cccc(C(F)(F)F)c1)C(=O)O; X8 = N=C(N)NCc1cccc(C[C@H](N[*:1])C(=O)[*:2])c1; Ala(morpholin-4-yl) = N[C@@H](CN1CCOCC1)C(=O)O; Phe(4-COOH) = N[C@@H](Cc1ccc(C(=O)O)cc1)C(=O)O; Phe(2-CF3) = N[C@@H](Cc1ccccc1C(F)(F)F)C(=O)O; Phe(3,5-F2) = N[C@@H](Cc1cc(F)cc(F)c1)C(=O)O; Bip = N[C@@H](Cc1ccc(-c2ccccc2)cc1)C(=O)O; Abu(3R-NH2) = C[C@@H](N)[C@H](N)C(=O)O; Phe(3-Me) = Cc1cccc(C[C@H](N)C(=O)O)c1; hPhe = N[C@@H](CCc1ccccc1)C(=O)O; 3Pal = N[C@@H](Cc1cccnc1)C(=O)O; Cha = N[C@@H](CC1CCCCC1)C(=O)O; Carboxymethyl = O=C(O)C*; NMeA = CN[C@@H](C)C(=O)O; Orn = NCCC[C@H](N)C(=O)O; Dab = NCC[C@H](N)C(=O)O
# How the values were obtained:
# [1] = biological target: T1, PD1-PDL1 protein-protein binding interaction [hPD1(25-167)-hIgG, hPD-L1 (19-239)-6xHis] (Homo sapiens, UniProt Q15116); assay: HTRF Assay (TR-FRET); conditions: 5 nM hPD1-hIgG, 5 nM hPD-L1-6xHis, 24 hours at 25° C., head μM
# T1 construct: hPD1(25-167)-hIgG, BMS
# Protocol: A time-resolved fluorescence resonance energy transfer (TR-FRET) assay was employed to measure the inhibition of the PD1-PDL1 protein-protein binding interaction. The reaction buffer was prepared by mixing the HiBlock buffer and LANCE detection buffer (PerkinElmer, TRF1011F and CR97-100) at a 1:1 ratio. Assay reactions contained 5 nM human programmed cell death 1 [hPD1(25-167)-hIgG, BMS], 5 nM human programmed cell death ligand 1 [hPD-L1 (19-239)-6×His, BMS], in the presence of 1 nM LANCE Eu-W1024 Anti-Human IgG (Eu-anti hIgG, PerkinElmer, AD0074) and 20 nM SureLight Allophycocyanin-anti-6×His antibody (APC-anti-6×His, PerkinElmer, AD0059H). Test compounds were evaluated in a 10-point dose-response format with serial three-fold dilutions starting from a 2 uM top concentration. Reactions were carried out in a total volume of 10 uL in 384-well microtiter plates (Proxiplate white, PerkinElmer, 6008289). Plates were sealed and incubated for 24 hours at 25° C. After 24 hours, the TR-FRET signal was measured using a PerkinElmer EnVision multimode plate reader and the resulting ratiometric data set (signal at 665 nm/615 nm, multiplied by a factor of 10,000) was recorded. The concentration giving half-maximal inhibition (the IC50) was obtained by fitting the data to a four-parameter logistic equation using Graphpad Prism or Dotmatics.
# [2] = biological target: T2, Alexa fluor-647 labeled human PD-L1-Ig binding to Jurkat cell line over-expressing human PD-1 (Homo sapiens, UniProt Q15116); assay: Jurkat-PD-1 Cell Binding High-Content Screening Assay (CBA): Method 3 (Alexa fluor-647 labeled PD-L1-Ig); conditions: Jurkat-PD-1 cells, Alexa fluor-647 labeled PD-L1-Ig 177 nM
# T2 construct: expressed in transfected cells; host or cells: Jurkat
# Outline: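 Readout by high-content imaging of PFA-fixed, Hoechst-stained cells after 1 h with 177 nM (final) Alexa fluor-647 PD-L1-Ig. Compound was added first to hPD-1 Jurkat cells in RPMI plus 10% FCS for 2 h at 37 °C.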
# [3] = head μM, read-out: CBA Method 3 μM
# T1 sequence (Q15116 25-167): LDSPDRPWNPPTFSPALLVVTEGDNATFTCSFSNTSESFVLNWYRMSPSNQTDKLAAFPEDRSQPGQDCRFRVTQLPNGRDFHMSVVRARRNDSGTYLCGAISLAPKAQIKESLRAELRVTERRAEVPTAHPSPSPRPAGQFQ
# T2 sequence (Q15116 25-288): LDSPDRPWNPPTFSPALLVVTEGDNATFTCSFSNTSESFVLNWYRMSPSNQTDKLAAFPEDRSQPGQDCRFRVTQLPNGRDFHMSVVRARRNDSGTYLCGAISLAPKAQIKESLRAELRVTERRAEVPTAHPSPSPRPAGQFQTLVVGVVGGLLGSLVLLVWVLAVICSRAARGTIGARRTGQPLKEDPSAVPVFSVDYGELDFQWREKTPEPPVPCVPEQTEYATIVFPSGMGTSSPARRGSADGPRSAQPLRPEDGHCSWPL
Compound,IC50 [1],"IC50 [2, 3]","IC50 ([2]; nM, read-out: CBA Method 3)"
CC(C)C[C@H]1NC(=O)[C@H](C)N(C)C(=O)[C@H](CCC(N)=O)NC(=O)[C@H](Cc2ccc(-c3ccccc3)cc2)NC(=O)[C@H](CCc2ccccc2)NC(=O)[C@H](Cc2cccc(C(F)(F)F)c2)NC(=O)[C@H](CC(=O)O)NC(=O)[C@H](CCC(N)=O)NC(=O)[C@H](CN2CCOCC2)NC(=O)CSC[C@@H](C(=O)N[C@@H](CCN)C(N)=O)NC(=O)[C@H](CCCN)NC(=O)[C@H](C(C)C)NC(=O)[C@H](CC2CCCCC2)NC(=O)[C@H](CCN)NC1=O [Example 5245] ({CH2CO}-[Ala(morpholin-4-yl)]QD[Phe(3-CF3)][hPhe][Bip]Q[NMeA][dL][Dab][Cha]V[Orn]C[Dab]-NH2; thioether N-14),0.01 µM,0.01 µM,
CC(C)C[C@H]1NC(=O)[C@H](C)N(C)C(=O)[C@H](CCC(N)=O)NC(=O)[C@H](Cc2ccc(-c3ccccc3)cc2)NC(=O)[C@H](Cc2ccc(OCC(=O)O)cc2)NC(=O)[C@H](Cc2cccc(C(F)(F)F)c2)NC(=O)[C@H](CC(=O)O)NC(=O)[C@H](Cc2ccc(O)cc2)NC(=O)[C@H](CN2CCOCC2)NC(=O)CSC[C@@H](C(=O)N[C@@H](CCN)C(N)=O)NC(=O)[C@H](CCCN)NC(=O)[C@H](C(C)C)NC(=O)[C@H](CC2CCCCC2)NC(=O)[C@H](CCN)NC1=O [Example 5237] ({CH2CO}-[Ala(morpholin-4-yl)]YD[Phe(3-CF3)]Y(Carboxymethyl)[Bip]Q[NMeA][dL][Dab][Cha]V[Orn]C[Dab]-NH2; thioether N-14),0.03 µM,,0.0044 µM
Cc1cccc(C[C@@H]2NC(=O)[C@H](CC(=O)O)NC(=O)[C@H](Cc3ccc(OCC(=O)O)cc3)NC(=O)[C@H](Cc3cccc(CNC(=N)N)c3)NC(=O)CSC[C@@H](C(=O)N[C@@H](CCN)C(N)=O)NC(=O)[C@H](CCCN)NC(=O)[C@H](C(C)C)NC(=O)[C@H](CC3CCCCC3)NC(=O)[C@H](CCN)NC(=O)[C@@H](CC(C)C)NC(=O)[C@H](C)N(C)C(=O)[C@H](CCC(N)=O)NC(=O)[C@H](Cc3ccc(-c4ccccc4)cc3)NC(=O)[C@H](Cc3ccc(C(=O)O)cc3)NC2=O)c1 [Example 5279] ({CH2CO}-[X8]Y(Carboxymethyl)D[Phe(3-Me)][Phe(4-COOH)][Bip]Q[NMeA][dL][Dab][Cha]V[Orn]C[Dab]-NH2; thioether N-14),0.015 µM,,0.003 µM
CC(C)C[C@H]1NC(=O)[C@H](C)N(C)C(=O)[C@H](CCC(N)=O)NC(=O)[C@H](Cc2ccc(-c3ccccc3)cc2)NC(=O)[C@H](CCc2ccccc2)NC(=O)[C@H](Cc2cccc(C(F)(F)F)c2)NC(=O)[C@H](CC(=O)O)NC(=O)[C@H](Cc2cccnc2)NC(=O)[C@H]([C@@H](C)N)NC(=O)CSC[C@@H](C(=O)N[C@@H](CCN)C(N)=O)NC(=O)[C@H](CCCN)NC(=O)[C@H](C(C)C)NC(=O)[C@H](CC2CCCCC2)NC(=O)[C@H](CCN)NC1=O [Example 5244] ({CH2CO}-[Abu(3R-NH2)][3Pal]D[Phe(3-CF3)][hPhe][Bip]Q[NMeA][dL][Dab][Cha]V[Orn]C[Dab]-NH2; thioether N-14),0.03 µM,,0.0064 µM
Cc1cccc(C[C@@H]2NC(=O)[C@H](CC(=O)O)NC(=O)[C@H](Cc3ccc(OCC(=O)O)cc3)NC(=O)[C@H](CN3CCOCC3)NC(=O)CSC[C@@H](C(=O)N[C@@H](CCN)C(N)=O)NC(=O)[C@H](CCC(N)=O)NC(=O)[C@H](C(C)C)NC(=O)[C@H](CC3CCCCC3)NC(=O)[C@H](CCN)NC(=O)[C@@H](CC(C)C)NC(=O)[C@H](C)N(C)C(=O)[C@H](CCC(N)=O)NC(=O)[C@H](Cc3ccc(-c4ccccc4)cc3)NC(=O)[C@H](CCc3ccccc3)NC2=O)c1 [Example 5221] ({CH2CO}-[Ala(morpholin-4-yl)]Y(Carboxymethyl)D[Phe(3-Me)][hPhe][Bip]Q[NMeA][dL][Dab][Cha]VQC[Dab]-NH2; thioether N-14),0.01 µM,,0.003 µM
"Cc1cccc(C[C@@H]2NC(=O)[C@H](CC(=O)O)NC(=O)[C@H](Cc3ccc(OCC(=O)O)cc3)NC(=O)[C@H](Cc3cc(F)cc(F)c3)NC(=O)CSC[C@@H](C(=O)N[C@@H](CCN)C(N)=O)NC(=O)[C@H](CCCN)NC(=O)[C@H](C(C)C)NC(=O)[C@H](CC3CCCCC3)NC(=O)[C@H](CCN)NC(=O)[C@@H](CC(C)C)NC(=O)[C@H](C)N(C)C(=O)[C@H](CCC(N)=O)NC(=O)[C@H](Cc3ccc(-c4ccccc4)cc3)NC(=O)[C@H](Cc3ccc(C(=O)O)cc3)NC2=O)c1 [Example 5284] ({CH2CO}-[Phe(3,5-F2)]Y(Carboxymethyl)D[Phe(3-Me)][Phe(4-COOH)][Bip]Q[NMeA][dL][Dab][Cha]V[Orn]C[Dab]-NH2; thioether N-14)",0.01 µM,0.2 µM,
CC(C)C[C@H]1NC(=O)[C@H](C)N(C)C(=O)[C@H](CCC(N)=O)NC(=O)[C@H](Cc2ccc(-c3ccccc3)cc2)NC(=O)[C@H](CCc2ccccc2)NC(=O)[C@H](Cc2cccc(C(F)(F)F)c2)NC(=O)[C@H](CC(=O)O)NC(=O)[C@H](Cc2ccc(OCC(=O)O)cc2)NC(=O)[C@H](CN2CCOCC2)NC(=O)CSC[C@@H](C(=O)N[C@@H](CCN)C(N)=O)NC(=O)[C@H](CCC(=O)O)NC(=O)[C@H](C(C)C)NC(=O)[C@H](CC2CCCCC2)NC(=O)[C@H](CCN)NC1=O [Example 5211] ({CH2CO}-[Ala(morpholin-4-yl)]Y(Carboxymethyl)D[Phe(3-CF3)][hPhe][Bip]Q[NMeA][dL][Dab][Cha]VEC[Dab]-NH2; thioether N-14),0.04 µM,0.01 µM,
Cc1cccc(C[C@@H]2NC(=O)[C@H](CC(=O)O)NC(=O)[C@H](Cc3ccc(OCC(=O)O)cc3)NC(=O)[C@H](Cc3ccc(-c4ccc(C(=O)O)cc4)cc3)NC(=O)CSC[C@@H](C(=O)N[C@@H](CCN)C(N)=O)NC(=O)[C@H](CCCN)NC(=O)[C@H](C(C)C)NC(=O)[C@H](CC3CCCCC3)NC(=O)[C@H](CCN)NC(=O)[C@@H](CC(C)C)NC(=O)[C@H](C)N(C)C(=O)[C@H](CCC(N)=O)NC(=O)[C@H](Cc3ccc(-c4ccccc4)cc3)NC(=O)[C@H](Cc3ccc(C(=O)O)cc3)NC2=O)c1 [Example 5177] ({CH2CO}-[Bip(4'-COOH)]Y(Carboxymethyl)D[Phe(3-Me)][Phe(4-COOH)][Bip]Q[NMeA][dL][Dab][Cha]V[Orn]C[Dab]-NH2; thioether N-14),0.03 µM,,0.0076 µM
CC(C)C[C@H]1NC(=O)[C@H](C)N(C)C(=O)[C@H](CCC(N)=O)NC(=O)[C@H](Cc2ccc(-c3ccccc3)cc2)NC(=O)[C@H](Cc2ccc(OCC(=O)O)cc2)NC(=O)[C@H](Cc2cccc(C(F)(F)F)c2)NC(=O)[C@H](CC(=O)O)NC(=O)[C@H](Cc2ccc(O)cc2)NC(=O)[C@H]([C@@H](C)N)NC(=O)CSC[C@@H](C(=O)N[C@@H](CCN)C(N)=O)NC(=O)[C@H](CCCN)NC(=O)[C@H](C(C)C)NC(=O)[C@H](CC2CCCCC2)NC(=O)[C@H](CCN)NC1=O [Example 5239] ({CH2CO}-[Abu(3R-NH2)]YD[Phe(3-CF3)]Y(Carboxymethyl)[Bip]Q[NMeA][dL][Dab][Cha]V[Orn]C[Dab]-NH2; thioether N-14),0.02 µM,0.02 µM,
Cc1cccc(C[C@@H]2NC(=O)[C@H](CC(=O)O)NC(=O)[C@H](Cc3ccc(OCC(=O)O)cc3)NC(=O)[C@H](Cc3ccccc3C(F)(F)F)NC(=O)CSC[C@@H](C(=O)N[C@@H](CCN)C(N)=O)NC(=O)[C@H](CCCN)NC(=O)[C@H](C(C)C)NC(=O)[C@H](CC3CCCCC3)NC(=O)[C@H](CCN)NC(=O)[C@@H](CC(C)C)NC(=O)[C@H](C)N(C)C(=O)[C@H](CCC(N)=O)NC(=O)[C@H](Cc3ccc(-c4ccccc4)cc3)NC(=O)[C@H](Cc3ccc(C(=O)O)cc3)NC2=O)c1 [Example 5292] ({CH2CO}-[Phe(2-CF3)]Y(Carboxymethyl)D[Phe(3-Me)][Phe(4-COOH)][Bip]Q[NMeA][dL][Dab][Cha]V[Orn]C[Dab]-NH2; thioether N-14),0.03 µM,,0.0002 µM
CC(C)C[C@H]1NC(=O)[C@H](C)N(C)C(=O)[C@H](CCC(N)=O)NC(=O)[C@H](Cc2ccc(-c3ccccc3)cc2)NC(=O)[C@H](CCc2ccccc2)NC(=O)[C@H](Cc2cccc(C(F)(F)F)c2)NC(=O)[C@H](CC(=O)O)NC(=O)[C@H](Cc2ccc(O)cc2)NC(=O)[C@H](CN2CCOCC2)NC(=O)CSC[C@@H](C(=O)N[C@@H](CCN)C(N)=O)NC(=O)[C@H](CCCN)NC(=O)[C@H](C(C)C)NC(=O)[C@H](CC2CCCCC2)NC(=O)[C@H](CCN)NC1=O [Example 5235] ({CH2CO}-[Ala(morpholin-4-yl)]YD[Phe(3-CF3)][hPhe][Bip]Q[NMeA][dL][Dab][Cha]V[Orn]C[Dab]-NH2; thioether N-14),0.03 µM,,0.0036 µM
